Where a name gives a salt, the structure may show the parent alone. Read-outs that look alike come from different tables or passages of the source. Blank lines part the entries; values can stand above or below the compound they belong to.
Tests used:
[1] = test system: Cynomolgus monkey hepatocytes; settings: 2 h, 10 μm/ml
Method: Hepatocyes often are used to assess the degree to which a compound may be transformed in the body of an animal, and it is known that such transformations may vary with hepatocytes from different species in a way that reflects metabolism in the whole animal.
Cynomolgus monkey hepatocytes were purchased from a commercial supplier and used within 48 hours of preparation. Compounds were prepared in culture media at a concentration of 10 μm/ml and incubated in a standard system with 1,000,000 viable hepatocytes per ml for 2 hours at 37 degrees. The extent of conversion at the end of the incubation period was assessed by measuring 1 by LC-MS/MS.

Caco-2 cells = settings: human
Method: In vitro drug transport assays using differentiated and P-glycoprotein-expressing Caco2 cell monolayers are widely used to predict absorption rates of candidate drug compounds across the intestinal epithelial cell barrier. See, e.g., Hilgers, A. R. et al., Pharm.
Caco-2 cells (obtained from ATCC) are grown to confluency on permeable membranes in chambers allowing access to both the apical and basolateral sides of the membrane. The intact nature of the resulting cellular membrane is assessed using transepithelial electrical resistance. The test compound is added at a known concentration to the apical side of the membrane and the rate of appearance of the compound on the basolateral side of the membrane is assessed by analysis using either HPLC or LC-MS/MS.

[2] = test system: Interferon Alpha (Mu-IFN-α); test: Murine interferon alpha (Mu-IFN-α) in plasma of mice after oral dosing; type: in vivo; settings: for mice with detectable interferon in plasma, of the mice used: mice of Tables 1, 2 and 3, oral dosing
Text: The normal mouse provides a useful system for the assessment of the degree to which the inventions described herein provide material improvement in the oral delivery of 1 (isatoribine). Not only can one measure the plasma concentrations of isatoribine arising from oral administration of the said prodrug(s) but also the extensive immunological research conducted in the mouse has provided reagents suitable for measuring the levels of interferon alpha, a cytokine of interest reflecting one of the desired biologic activities of isatoribine. […] Table 1 records the results of an assay for murine interferon alpha in the plasma of mice that were dosed two times with isatoribine, formulated in bicarbonate, at a level of 50 mg/kg by the oral route. […] Table 2 records the results of assays for murine interferon alpha in the plasma of mice that first were dosed with bicarbonate and then four hours later were dosed orally with isatoribine, formulated in bicarbonate, at a level of 50 mg/kg. Interferon was reported in the plasma from four mice, including two that had received the bicarbonate vehicle dose. […] Table 3 records the results of assays for murine interferon alpha in the plasma of mice that were dosed orally with val-isatoribine, dissolved in bicarbonate, at a dose that is equivalent to 50/mg/kg of isatoribine on a molar basis. […] Interferon was detected in all mice assayed at a given time point, indicating the reliability of the effect following val-isatoribine administration. […] The data tabulated in Tables 1, 2, and 3 may be also considered from the point of view of the incidence of measurable interferon levels.

[3] = Toxicology studies in dogs: GI tolerance (emesis, loose stool, GI lesions) and isatoribine exposure
Method: (§1) Formal toxicology studies of intravenously administered isatoribine and orally administered isatoribine and val-isatoribine were conducted in beagle dogs.
(§2) In each case the compound was administered as a solution, by gavage or by intravenous infusion. Multiple parameters were assessed, as is customary in a toxicology study. In the studies providing higher potential exposure to isatoribine, the plasma concentration of isatoribine was assessed by a LC/MS method.

[4] = Systemic exposure to isatoribine after oral administration to beagle dogs (plasma HPLC-MS/MS); type: in vivo; settings: at both 10 and 50 mg/kg dose
Method: The effect of a prodrug (val-isatoribine, 3) on the systemic exposure to isatoribine (1) after oral administration to beagle dogs was investigated. Isatoribine was prepared in sodium bicarbonate solution.
Four male and four female adult beagle dogs weighing between 15 to 27 kg and approximately 1-2 years old were used at the beginning of the study. The animals were divided into 2 groups of 2 males and 2 females each. The test material was administered by gavage on Days 1 and 8, allowing a 7-day washout period between administrations. Blood samples (2 mL) were collected from each animal at predose, 15, 30 minutes, 1, 2, 3, 4, 6, 8 and 10 hours into lithium heparin tubes after each dosing. The plasma was frozen at −70° C. until analysis. The plasma was analyzed for isatoribine by an HPLC-MS/MS assay.
The ratios for the key pharmacokinetic parameters defining the maximum concentration (Cmax) and total exposure as measured by the area under the time-concentration curve (AUC) for the prodrug and the bicarbonate solution at the 50 mg/kg dose are summarized in Table 6.

[5] = cited from earlier work
[6] = dog, in vivo, iv, 12.5 mg/kg
Method: as §1, §2

[7] = oral val-isatoribine, 8.1 mg/kg isatoribine equivalent applied dose
[8] = oral val-isatoribine, 16 mg/kg isatoribine equivalent applied dose
[9] = oral val-isatoribine, 32 mg/kg isatoribine equivalent applied dose
[10] = oral val-isatoribine, 64 mg/kg isatoribine equivalent applied dose
[11] = dogs, oral isatoribine, 2.5 mg/kg isatoribine equivalent applied dose
[12] = IV isatoribine, 25 mg/kg applied dose

SMILES: CNc1nc(N)nc2c1sc(=O)n2[C@@H]1O[C@H](CO)[C@@H](O)[C@H]1O [Compound 18]
melting point: > 108 °C

SMILES: Nc1nc(N)c2sc(=O)n([C@@H]3O[C@H](CO)[C@@H](O)[C@H]3O)c2n1 [Compound 15, 5,7-Diamino-3-β-D-ribofuranosylthiazolo[4,5-d]pyrimidin-2-one]
melting point: > 155 °C (dec.)

SMILES: Nc1nc(N2CCCC2)c2sc(=O)n([C@@H]3O[C@H](CO)[C@@H](O)[C@H]3O)c2n1 [Compound 23, 5-Amino-7-pyrrolidino-3-β-D-ribofuranosylthiazolo[4,5-d]pyrimidin-2-one]
melting point: > 112.4 °C (dec.)

SMILES: Nc1nc(NC2CCCC2)c2sc(=O)n([C@@H]3O[C@H](CO)[C@@H](O)[C@H]3O)c2n1 [Compound 22, 5-Amino-7-cyclopentylamino-3-β-D-ribofuranosylthiazolo[4,5-d]pyrimidin-2-one]
melting point: > 108 °C (dec.)

SMILES: COc1nc(N)nc2c1sc(=O)n2[C@@H]1O[C@H](CO)[C@@H](O)[C@H]1O [Compound 14, 5-Amino-3-β-D-ribofuranosyl-7-methoxy-thiazolo[4,5-d]pyrimidin-2-one]
melting point: > 160 °C (dec.)

SMILES: CN(C)c1nc(N)nc2c1sc(=O)n2[C@@H]1O[C@H](CO)[C@@H](O)[C@H]1O [Compound 20, 5-Amino-7-dimethylamino-3-β-D-ribofuranosylthiazolo[4,5-d]pyrimidin-2-one]
melting point: > 112 °C

SMILES: CC(C)[C@H](N)C(=O)OC[C@H]1O[C@@H](n2c(=O)sc3c(O)nc(N)nc32)[C@H](O)[C@@H]1O [Compound 3, 5-Amino-3-(5′-O-L-valinyl-β-D-ribofuranosyl)thiazolo[4,5-d]pyrimidine-2,7-dione Dihydrochloride]
interferon in plasma (result in words) ([2]; mice dosed orally with val-isatoribine in bicarbonate, equivalent to 50 mg/kg isatoribine): interferon was readily measurable at 1.0 hour, 1.5 hours, and 2.0 hours after dosing | mice with detectable interferon in plasma, of the mice used [2]: 10 of the 30 | increase of the magnitude of both the average and peak interferon response over isatoribine ([2]; mice, oral dosing, Tables 1-3): twofold | Emesis or loose stool [3, 7]: Neg. | GI lesions or irritation [3, 7]: Neg. | Emesis or loose stool [3, 8]: Neg. | GI lesions or irritation [3, 8]: Neg. | Emesis or loose stool [3, 9]: Neg. | GI lesions or irritation [3, 9]: Neg. | Emesis or loose stool [3, 10]: Neg. | GI lesions or irritation [3, 10]: Neg. | GI lesions or irritation ([3]; oral val-isatoribine, 130 mg/kg isatoribine equivalent applied dose): Neg. | GI lesions or irritation ([3]; oral val-isatoribine, 260 mg/kg isatoribine equivalent applied dose): Neg. | GI lesions or irritation ([3]; oral val-isatoribine, 390 mg/kg isatoribine equivalent applied dose): Neg. | GI lesions (result in words) ([3]; orally administered val-isatoribine): No GI lesions were found | maximum concentrations of isatoribine after oral dosing compared to isatoribine itself [4]: at least doubled

SMILES: CC(C)[C@H](N)C(=O)OC[C@H]1O[C@@H](n2c(=O)sc3c(O)nc(N)nc32)[C@H](O)[C@@H]1O (as salt: hydrochloride) [Compound 3, 5-Amino-3-(5′-O-L-valinyl-β-D-ribofuranosyl)thiazolo[4,5-d]pyrimidine-2,7-dione Dihydrochloride]
melting point: 166 to 168 °C (dec.)

SMILES: Nc1nc2c(sc(=O)n2[C@@H]2O[C@H](CO)[C@@H](O)[C@H]2O)c(=O)[nH]1 [Compound 1, 5-amino-3-β-D-ribofuranosylthiazolo[4,5-d]pyrimidine-2,7-dione, reference compound]
Emesis or loose stool [5, 11]: Neg. | GI lesions or irritation [5, 11]: Neg. | GI lesions or irritation ([5]; dogs, oral isatoribine, 5 mg/kg isatoribine equivalent applied dose): Neg. | dogs with multiple, scattered red lesions on the intestinal mucosa (gross histopathologic evaluation) ([5]; orally administered isatoribine at 10 mg/kg): four of eight dogs | Emesis or loose stool [6]: Neg. | GI lesions or irritation [6]: Neg. | interferon in plasma (result in words) ([2]; mice dosed two times with isatoribine in bicarbonate, 50 mg/kg oral, interval of four hours): no interferon was measurable | mice with detectable interferon in plasma, of the mice used [2]: 4 of the 114 | Emesis or loose stool [3, 12]: Neg. | GI lesions or irritation [3, 12]: Neg. | GI lesions or irritation ([3]; IV isatoribine, 50 mg/kg applied dose): Neg. | GI lesions or irritation ([3]; IV isatoribine, 100 mg/kg applied dose): Neg. | GI tract lesions at necropsy or histopathologic evaluation (result in words) ([3]; intravenously administered isatoribine): No lesions were seen in the GI tract

The next lines start with results.

melting point: > 180 °C (dec.)
SMILES: CN[C@H](C(=O)OC[C@H]1O[C@@H](n2c(=O)sc3c(O)nc(N)nc32)[C@H](O)[C@@H]1O)C(C)C (as salt: hydrochloride) [Compound 11, 5-Amino-3-(5′-O-[α-L-N-methylvalinyl]-β-D-ribofuranosyl)thiazolo[4,5-d]pyrimidine-2,7-dione Hydrochloride]

Monkey Hepatocytes [1]: 10% | melting point: 220 °C (dec.)
SMILES: Nc1ncc2sc(=O)n([C@@H]3O[C@H](CO)[C@@H](O)[C@H]3O)c2n1 [Compound 79, 5-Amino-3-β-D-ribofuranosyl-3H-thiazolo-[4,5-d]pyrimidin-2-one]

Monkey Hepatocytes [1]: 45% | Caco2 transport compared with 79 (result in words) (Caco-2 cells): significantly improved transport over 79
SMILES: CC(=O)O[C@@H]1[C@H](OC(C)=O)[C@@H](CO)O[C@H]1n1c(=O)sc2cnc(N)nc21 [Compound 89, 5-Amino-3-(2′,3′-di-O-acetyl-β-D-ribofuranosyl)-3H-thiazolo[4,5-d]pyrimidin-2-one]
conversion to 1 compared with 79 (result in words) [1]: more extensively converted to 1 than is 79

Monkey Hepatocytes [1]: 20% | Caco2 transport compared with 79 (result in words) (Caco-2 cells): significantly improved transport over 79
SMILES: CC(=O)OC[C@H]1O[C@@H](n2c(=O)sc3cnc(N)nc32)[C@H](OC(C)=O)[C@@H]1OC(C)=O [Compound 78, 5-Amino-3-(2′,3′,5′-tri-O-acetyl-β-D-ribofuranosyl)-3H-thiazolo[4,5-d]pyrimidin-2-one]
conversion to 1 compared with 79 (result in words) [1]: more extensively converted to 1 than is 79

Source: patent US7943759B2, “3-β-D-ribofuranosylthiazolo[4-5-d]pyrimidine nucleosides and uses thereof” (Anadys Pharmaceuticals, Inc., priority 2001, dated 2011)
